Laboratory results from patent publication US20090031435A1, “SMA Therapy and Cell Based Assay” (priority 2002, published 2009).

Experiments:
[1] = test system: SMN2-luciferase reporter construct; experiment: SMN2-luciferase splicing reporter luminescence assay in C33A cells; format: cell-based, human; conditions: for luminescence from the SMN2-luciferase reporter construct: screen at 10 μM, ~48 hr; for SMN2 luminescence/SMN1 luminescence: highest point of the curve of increase in SMN2-luciferase luminescence minus increase in SMN1-luciferase luminescence (treated/control), dilution series max 10 uM
Protocol: (§1) In a screen to identify compounds capable of enhancing the inclusion of exon 7 in SMN2 mRNA, cells of the human cervical carcinoma cell line C33A (ATCC#HTB-31) were stably transformed with an SMN fragment/luciferase reporter gene construct that incorporated exons 6-8 of SMN1 or SMN2 for use in a high-throughput screening assay. These cells were cultured in Dulbecco's Modified Eagle's Medium (DMEM) with 10% Fetal Bovine Serum (Sigma F 2442), 50 units/mL penicillin 50 μg/mL streptomycin sulfate and 400 mg/L G418 (i.e. Geneticin, Gibco, cat. No. 11811-031). The assay medium used to perform the luciferase assay was identical to the growth medium except the G418 selection agent was omitted. To perform the luciferase assay, a single reagent (25 mM glycylglycine, 15 mM magnesium sulfate, 4 mM EGTA, adjusted to pH 7.85, to which is added 10 μM D-luciferin (Sigma L9504), 10 mM dithiothreitol (DTT, Roche Molecular Biochemicals 100034), 2 mM adenosine 5′-triphosphate (ATP, Sigma A7699), 50 μM CoenzymeA, sodium salt (Sigma C 3144) and 1.5% Triton X-100) was used to lyse the cells and to initiate the luciferase reaction.
(§2) Using this cell-based luminescence assay, a screen was performed to identify compounds that modulate SMN splicing. Stably transfected C33A cells (˜35-40 M cells/flask) were cultured, then removed from T-175 culture flasks with 3 mL trypsin, and quenched with 7 mL assay medium. The cells were spun down and re-suspended in assay medium to a concentration of ˜200,000 cells/mL. Cells were immediately seeded in 384-well assay plates (Nalge Nunc white plates, #164610) 57 μL/well for a cell density of 11,000 cells/well. Compounds from a library obtained from the National Institute of Neurological Disorders and Stroke (NINDS) were added to the cells to a final concentration of 10 μM (diluted with assay medium by 1000× from the 10 mM stock solution in DMSO). The cells were incubated with the test compounds at 37° C. for ˜48 hr. A Zymark Sciclone ALH was used for cell seeding and compound addition. After incubation, the assay plates were cooled to room temperature for ˜10-60 minutes. The medium and compounds were aspirated from the wells, followed by 6 rinse/aspirate cycles with a PBS solution. 53 μL of the luciferase assay reagent was added and the plate was immediately transferred to a luminescence plate reader. The plate was shaken for 30 minutes prior to reading. The plate processing steps were performed on an integrated Packard Minitrak/Sidetrak platereader.
(§3) To analyze the data, the dark count background was first subtracted from all luminescence readings. The signal from each compound treated well was divided by the average of 48 control wells on the same 384-well plate. Each compound library plate was tested in triplicate with each of the two cell lines, and the entire assay was repeated on two separate occasions, yielding six readings for each compound for each cell line. The highest and lowest of the six normalized readings were dropped and the remaining four readings averaged. These average values of compound-treated luminescence versus control luminescence are denoted “Xnorm(y)”, where X indicates the cell line, SMN1-luciferase or SMN2-luciferase, and y represents the compound. The difference of [SMN2norm(y)−SMN1norm(y)] measures the selective change in SMN2-luciferase expression versus change in SMN1 luciferase production upon treatment with compound y. This is the final score that is output.
(§4) These dilutions were created with a Zymark Sciclone ALH Z-8. Once created, the assay was performed as described for the screening process. Concentrations required to achieve 50% of the maximally achievable effect for each compound (“EC50”) were calculated using Xlfit (IDBS).

SMN1-luciferase control = SMN1-luciferase control splicing reporter luminescence assay in C33A cells; format: cell-based, human
Protocol: as §1, §2, §3, §4

Compound	Effect on splicing of SMN2-luciferase in C33A cells [1]	Effect on splicing of SMN1-luciferase control in C33A cells (SMN1-luciferase control)	luminescence from the SMN2-luciferase reporter construct [1]	SMN2 luminescence/SMN1 luminescence [1]
CN1C(=O)c2ccc(-c3ccccc3)cc2C1(O)C(C)(C)C (stereo not drawn) [1-tert-butyl-1-hydroxy-2-methyl-6-phenyl-3-isoindolinone]	None	–	–	–
O=C(O)C(Cc1ccccc1)N1Cc2ccccc2C1=O (stereo not drawn) [2H-isoindol-2-acetic acid, 1,3-dihydro-1-oxo-alpha-(phenylmethyl)- . . .]	None	None	–	–
CC(C)Cc1ccc(C(C)C(=O)O)cc1 (stereo not drawn) [ibuprofen]	–	–	None of these compounds resulted in increased luminescence	–
Cc1ccc(N2C(=O)c3ccccc3C2C(=O)c2cc(O)ccc2O)cc1 (stereo not drawn) [3-(2,5-hydroxybenzoyl)-2-(4-methylphenyl)-1-isoindolinone]	None	–	–	–
CCC(CC)(CC)C1(O)c2ccccc2C(=O)N1C (stereo not drawn) [3-(1,1-diethylpropyl)-3-hydroxy-2-methyl-1-isoindolinone]	None	–	–	–
CC(C(=O)O)c1cccc(C(=O)c2ccccc2)c1 (stereo not drawn) [ketoprofen]	–	–	None of these compounds resulted in increased luminescence	–
CC(=O)Oc1ccccc1C(=O)O [aspirin]	–	–	None of these compounds resulted in increased luminescence	–
CC(C(=O)O)c1ccc(-c2ccccc2)c(F)c1 (stereo not drawn) [flurbiprofen]	–	–	None of these compounds resulted in increased luminescence	–
[O-][n+]1ccccc1[S-].[O-][n+]1ccccc1[S-].[Zn+2] [Pyrithione zinc, pyrithione zinc]	–	–	increased luminescence	1.0
O=C(O)CCCN1C(=O)c2ccccc2C1=O [2H-isoindol-2-butanoic, 1,3-dihydro-1,3-dioxo]	None	None	–	–
Cc1ccc(N2C(=O)c3ccccc3C2C(=O)c2cc(C)ccc2O)cc1 (stereo not drawn) [3-(2-hydroxy-5-methylbenzoyl)-2-(4-methylphenyl)-1-isoindolinone]	None	–	–	–
O=C1c2ccccc2C(O)(c2ccc(Cl)cc2)N1OC1CCCCO1 (stereo not drawn) [3-(4-chlorophenyl)-3-hydroxy-2-(tetrahydropyran-2-yloxy)-1-isoindolinone]	None	–	–	–
CC(C(=O)O)c1cccc(Oc2ccccc2)c1 (stereo not drawn) [fenoprofen]	–	–	None of these compounds resulted in increased luminescence	–
CC(=O)Nc1ccc(O)cc1 [acetominophen]	–	–	None of these compounds resulted in increased luminescence	–
Cc1ccc(C(CC(=O)O)N2Cc3ccccc3C2=O)cc1 (stereo not drawn) [2H-isoindol-2-propanoic acid, 1,3-dihydro-beta-(4-methylphenyl)-1-oxo]	None	None	–	–
CC[C@@]1(O)C(=O)OCc2c1cc1n(c2=O)Cc2cc3ccccc3nc2-1 [Camptothecin, camptothecin]	–	–	increased luminescence	0.4
CN1C(=O)c2ccccc2C1(O)C(C)(c1ccccc1)c1ccccc1 (stereo not drawn) [3-(1,1-diphenylethyl)-3-hydroxy-2-methyl-1-isoindolinone]	None	–	–	–
O=C1C=C2C(=CCOC2O)O1 (stereo not drawn) [Patulin, patulin]	–	–	increased luminescence	0.7
COc1ccc2c(c1)c(CC(=O)O)c(C)n2C(=O)c1ccc(Cl)cc1 [1-(4-Chlorobenzoyl)-5-methoxy-2-methyl-3-indoleacetic acid]	None	None	–	–
CC(C(=O)O)c1ccc(C(=O)c2cccs2)cc1 (stereo not drawn) [suprofen]	–	–	None of these compounds resulted in increased luminescence	–
O=C1NCc2ccccc21 [1H-isoindol-1-one, 2,3-dihydro-]	None	None	–	–
O=C1c2ccccc2CN1c1ccccc1 [1H-isoindol-1-one, 2,3-dihydro-2-phenyl]	None	None	–	–
Cc1ccc(N2C(=O)c3ccccc3C2C(=O)c2ccc(O)cc2O)cc1 (stereo not drawn) [3-(2,4-hydroxybenzoyl)-2-(4-methylphenyl)-1-isoindolinone]	None	–	–	–
O=C(O)CCC(C(=O)O)N1Cc2ccccc2C1=O (stereo not drawn) [2-Phthalimidino-glutaric acid]	None	None	–	–
Methyl 2-[4-(1,3-dioxo-2,3-dihydro-1H-isoindol-2-yl)phenyl . . .	None	–	–	–
NC12CC3CC(CC(C3)C1)C2 [amantadine]	–	–	increased luminescence	0.3
CO[C@@]1(NC(=O)Cc2cccs2)C(=O)N2C(C(=O)O)=C(COC(N)=O)CS[C@@H]21 [Cefoxitin sodium, cefoxitin sodium]	–	–	increased luminescence	0.3
Methyl 2-[4-(1,3-dioxo-2,3-dihydro-1H-isoindol-2-yl)-3-me . . .	None	–	–	–
CC(O)c1ccc(N2Cc3ccccc3C2=O)cc1 (stereo not drawn) [1H-isoindol-1-one, 2,3-dihydro-2-[4-91-hydroxyethyl)phenyl]]	Increased	Increased	–	–
